What was measured:
PC3 cells = assay: cAMP assay in PC3 cells; format: cell-based
Procedure: (§1) PC3 and LNCaP cells were seeded in 12-well plates at a density of 1.5×10^5 cells/well. The next day, cells were gently washed three times with serum-free media to remove excess FBS and grown for a further 24 hours in the absence of serum. Cells were then stimulated with various concentrations of DA for 15 minutes or 5-HT for 10 minutes at 37° C. Cells were lysed and intracellular cAMP levels were determined using the cAMP Biotrak Enzymeimmunoassay System (Amersham Biosciences) following the manufacturer's instructions. Assays were performed in triplicate with two independent trials.

LNCaP cells [1] = assay: cAMP assay in LNCaP cells; format: cell-based, human; conditions: all concentrations; DA 15 minutes, 5-HT 10 minutes
Procedure: as §1

AR [2] = assay: AR transactivation assay (pARR3-tk-Luc) in AR transfected PC3 cells; format: cell-based, human
Source text: (§2) PC3 and LNCaP cells were transfected, treated with R1881 and used for luciferase assays, as described previously. Briefly, human AR expression plasmid (pcDNA3.1-hAR) and AR-regulated luciferase reporters, pARR3-tk-Luc or pPSA-630 bp-Luc (−630/+12 bp of the 5′ PSA flanking region) {Snoek, 1998 #136}, were cotransfected into cells, along with DDC expression plasmid (pDEST12.2-DDC) or control empty vector (pDEST12.2). Firefly luciferase values were normalized to renilla luciferase (PRL-TK reporter; Promega Corp.) and expressed as relative luciferase units (RLU).
Transactivation assays for AR were also performed in PC3 cells treated with dopamine (DA) and serotonin (5-HT, 5-hyroxytyrptamine), which were purchased from Sigma. As described above, cells were transfected with pcDNA3.1-hAR, pRL-TK-renilla and pARR3-tk-Luc reporter but DDC was excluded. Cells were then treated with or without 1 nM R1881 and varying concentrations of pure DA or 5-HT in 5% dextran-coated charcoal stripped FBS (DCC-FBS) for 24 hours before harvest and luciferase assay.

LNCaP cells [3] = assay: MTS cell proliferation assay, androgen-dependent LNCaP cells; format: cell-based, human; conditions: 10 μM, 8 days
Procedure: Cell proliferation assays were performed using the 3-(4,5-dimethylhiazol-2-yl)-5-(3-carboxymethoxyphenyl)-2-(4-sulfophenyl)-2H-tetrazolium Assay (MTS) according to the manufacturer's protocol, with minor modifications (Promega). LNCaP cells were plated in 96-well plates at a density of 3000 cells per well and incubated in RPMI medium containing 5% CSS for one day. On the following day, the DDC inhibitors, carbidopa (25 and 50 μM) and NSD-1015 (10 μM)±0.1 nM R1881 were added to each well in charcoal-stripped serum (CSS; Hyclone, VWR) RPMI media. The cells were harvested at days 0, 2, 4, 6 and 8, with a medium change every 3 days. Each time point was measured with 6 replicates.
(§3) Student's t-test (two-sample equal variance) was used to evaluate statistically significant differences. All calculated p-values were two-sided and those less than 0.05 were considered statistically significant.

C4-2 cells = assay: MTS cell proliferation assay, androgen-independent C4-2 cells; format: cell-based, human; conditions: 10 μM, 6 days
Procedure: Cell proliferation assays were performed using the 3-(4,5-dimethylhiazol-2-yl)-5-(3-carboxymethoxyphenyl)-2-(4-sulfophenyl)-2H-tetrazolium Assay (MTS) according to the manufacturer's protocol, with minor modifications (Promega). C4-2 cells were plated in 96-well plates at a density of 750 cells per well in RPMI medium containing 5% CSS for 1 day. On the following day, the DDC inhibitors, carbidopa (25 μM) and NSD-1015 (10 μM)±0.1 nM R1881 were added to each well in charcoal-stripped serum (CSS; Hyclone, VWR) RPMI media. The cells were harvested at days 0, 2, 4, and 6, with a medium change every 3 days. Each time point was measured with 6 replicates.
as §3

DDC [4] = target: T1, DDC (Homo sapiens, UniProt P20711); assay: Dopamine ELISA on conditioned medium of PC3 cells overexpressing DDC; format: cell-based; conditions: 1 μM NSD-1015, 24 hours, 1 nM R1881
T1 construct: expressed in transfected cells; host or cells: PC3 cells, co-transfected with pcDNA3.1-AR
T1 sequence (P20711 1-480): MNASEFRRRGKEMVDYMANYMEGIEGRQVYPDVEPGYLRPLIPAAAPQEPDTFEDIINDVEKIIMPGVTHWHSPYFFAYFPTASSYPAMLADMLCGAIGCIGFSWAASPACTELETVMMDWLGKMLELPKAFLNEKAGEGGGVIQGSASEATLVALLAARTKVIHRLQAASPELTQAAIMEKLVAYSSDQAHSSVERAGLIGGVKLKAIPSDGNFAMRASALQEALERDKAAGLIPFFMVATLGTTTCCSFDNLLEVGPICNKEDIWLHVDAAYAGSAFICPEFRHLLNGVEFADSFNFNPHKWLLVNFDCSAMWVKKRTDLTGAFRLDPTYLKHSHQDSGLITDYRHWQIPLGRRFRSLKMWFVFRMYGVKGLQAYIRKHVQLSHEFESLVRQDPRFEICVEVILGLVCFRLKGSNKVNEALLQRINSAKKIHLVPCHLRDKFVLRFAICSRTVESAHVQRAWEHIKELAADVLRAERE
Procedure: (§4) PC3 cells were seeded in 12-well plates at a density of 1.5×10^5 cells/well and transfected the following day with pcDNA3.1-AR and pDEST12.2-DDC or pDEST12.2 empty vector control, as described above for transactivation assays. The next day, media was changed to 5% DCC-FBS containing 1 nM R1881. Conditioned culture media was removed 24 hours later and stored at −80° C. A 100 μL volume of media was used for the competitive enzyme-linked immunosorbent assay (ELISA). Dopamine was assayed using the Dopamine Research Enzyme Immunoassay kit (Rocky Mountain Diagnostics) following the manufacturer's instructions. PC12 cells, used as a positive control, were grown to 70% confluency (12-well plates) and conditioned media was collected 24 hours later for assay, as above. Secreted DA levels from PC3 and PC12 cells were determined in the presence and absence of 1 μM NSD-1015 (3-hydroxybenzylhydrazine) DDC enzymatic inhibitor (Sigma). All ELISAs were performed in triplicate with two independent trials.

DDC [5] = target: T2, DDC (Rattus norvegicus, UniProt P14173); assay: Dopamine ELISA on conditioned medium of PC12 cells; format: cell-based; conditions: 1 μM NSD-1015, 24 hours
T2 construct: PC12 cells were not transfected or treated with R1881 but were incubated 24 hours with or without NSD-1015; endogenous in cells; host or cells: PC12 rat adrenal pheochromocytoma cells
T2 sequence (P14173 1-480): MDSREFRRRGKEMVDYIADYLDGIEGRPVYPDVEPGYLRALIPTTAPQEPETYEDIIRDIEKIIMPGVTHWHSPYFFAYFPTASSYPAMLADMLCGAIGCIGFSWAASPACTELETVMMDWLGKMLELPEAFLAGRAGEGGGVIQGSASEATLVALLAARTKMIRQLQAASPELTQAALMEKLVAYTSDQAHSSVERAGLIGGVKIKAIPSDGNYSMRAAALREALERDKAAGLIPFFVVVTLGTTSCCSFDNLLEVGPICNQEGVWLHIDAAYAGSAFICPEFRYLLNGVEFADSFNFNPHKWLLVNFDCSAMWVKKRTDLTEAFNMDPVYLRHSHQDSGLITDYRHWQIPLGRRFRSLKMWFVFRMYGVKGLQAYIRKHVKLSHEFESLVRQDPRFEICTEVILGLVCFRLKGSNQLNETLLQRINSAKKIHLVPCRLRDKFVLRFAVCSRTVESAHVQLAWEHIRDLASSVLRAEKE
Procedure: as §4

AR [6] = assay: AR transactivation assay (pARR3-tk-Luc) in LNCaP cells; format: cell-based, human; conditions: endogenous AR, 24 hours
Source text: as §2

AR ligand binding domain = target: T3, AR ligand binding domain (Rattus norvegicus, UniProt P15207); assay: In vitro hydroxylapatite pulldown ligand binding assay
T3 construct: purchased PanVera
T3 sequence (P15207 651-882 limits assumed): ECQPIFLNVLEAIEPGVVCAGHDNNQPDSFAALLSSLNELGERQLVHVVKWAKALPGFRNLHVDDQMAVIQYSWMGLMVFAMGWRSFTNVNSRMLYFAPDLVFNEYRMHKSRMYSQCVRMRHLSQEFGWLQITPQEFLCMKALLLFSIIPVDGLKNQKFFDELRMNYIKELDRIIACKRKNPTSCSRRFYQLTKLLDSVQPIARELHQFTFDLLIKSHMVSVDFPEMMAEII
Procedure: Recombinant rat thioredoxin-fused AR ligand binding domain (PanVera, 1.390 mg/mL, 48.4 kDa), which is identical to the human AR-LBD, was used for hydroxylapatite (HAP) pulldown ligand binding assays at R1881 concentrations of 0 to 1000 nM {Portigal, 2002 #86}. Initially, his-tagged-DDC protein was expressed in BL21-SI bacteria, containing the pDEST17-His-DDC plasmid, and purified using a nickel-nitrilotriacetic acid (Ni-NTA)-agarose column according to the manufacturer's protocol (Qiagen). Purified AR-LBD was diluted to a final concentration of 1 μg/mL in binding buffer (50 mM Tris pH 7.5, 10% glycerol, 0.8 M NaCl, 1 mg/mL BSA and 2 mM dithiothreitol), containing tracer 20 nM [^3H]-R1881 (NEN Life Science Products, 75.2 Ci/mmol, 1 mCi/mL). In order to minimize the use of radioactive ligand, supplemental cold R1881 was added to the assay mix to achieve the high 100 nM and 1000 nM total R1881 concentrations. Assays were carried out in the absence and presence of 0.5 μg of His-DDC protein, which was added directly to the 1 mL assay mix. Following overnight incubation at 4° C., a 50% HAP slurry (Calbiochem Fast Flow hydroxylapatite in […] pH 8.0 and 1 mM EDTA) was added to the assay, pellets were incubated on ice for 10 minutes, and then washed four times with wash buffer (40 mM Tris pH 7.5, 100 mM KCl, 1 mM EDTA and 1 mM EGTA). HAP pellets were resuspended in ethanol and bound [^3H]-R1881 was measured (disintegrations per minute, dpm) using a Beckman LS 6500 scintillation counter.
To determine non-specific binding (NSB) to the HAP matrix, control pulldown assays were carried out using an assay mix that lacked AR-LBD. […] NSB values were subtracted from sample measurements for determination of specific binding. The total dpm per assay was determined by measuring a known amount of [^3H]-R1881 and normalizing to the total assay volume (1 mL). All assays were carried out in triplicate and the pmole bound [^3H]-R1881/mg AR-LBD protein was calculated by using the measured dpm of tracer 20 nM [^3H]-R1881. Calculated values were then extrapolated to determine total ligand bound at the 10 nM, 100 nM and 1000 nM R1881 concentrations. Results were expressed as the mean total pmole bound R1881/mg AR-LBD protein (±SEM).

AR [7] = assay: Cell-based ligand binding assay in HeLa-AR cells (cytosol); set-up: species or system human
Procedure: HeLa-AR cells were cultured for 24-48 hours in DMEM containing 5% DCC-FBS and seeded onto 6 cm plates at a density of 1×10^6 cells/plate. After 5 hours, cells were transfected with either pDEST12.2-DDC or pDEST12.2 control vector (5 μg/plate) using Lipofectin Reagent (Invitrogen). The next day, transfection mix was changed to DMEM supplemented with 5% DCC-FBS containing increasing concentrations of [^3H]-R1881 (0-10 nM). To determine non-specific binding, hormone treatments were carried out in the presence (NSB) and absence (total binding) of excess cold 1000 nM R1881. After 24 hours of incubation with hormone, cells were harvested as described previously. […]
Cytosolic and nuclear extracts were then thawed and incubated for 6 hours with agarose beads conjugated to FLAG monoclonal antibody (Sigma, USA). […] Beads were washed with Buffer D (20 mM HEPES pH 7.9, 20% glycerol, 0.3 M KCl, 0.2 mM EDTA, 0.05% NP-40, 0.5 mM DTT, 0.5 mM PMSF) and specifically bound ligand (total binding—NSB) to the immunopreciptated FLAG-tagged AR protein was determined by measuring the levels of tritium (dpm) in bead resuspensions using a scintillation counter. All measured bound dpm values were normalized to corresponding Western blot AR protein band intensities. Results were expressed as the relative (normalized to the level of AR protein) mean bound ligand of three replicates (±SEM).

[8] = presence of hormone (0.1 nM R1881)

Compound: NCCc1c[nH]c2ccc(O)cc12 [5-HT, 5-hyroxytyrptamine]
- intracellular cAMP response (PC3 cells; 5-HT 10 minutes): did not increase cAMP levels
- intracellular cAMP response (LNCaP cells [1]): did not increase cAMP levels
- AR activity in the absence or presence of ligand (AR [2]; 0-100 nM, with or without 1 nM R1881, 24 hours): did not alter AR activity

Compound: NCCc1ccc(O)c(O)c1 [DA, dopamine]
- increase in intracellular cAMP versus untreated cells (PC3 cells; maximum 200 μM concentration, 15 minutes): ~52 fold
- intracellular cAMP response (LNCaP cells [1]): did not induce a significant cAMP response
- repression of ligand-dependent AR transcription (AR [2]; highest 200 μM concentration, 1 nM R1881, 24 hours): 2.2 fold
- ligand-independent activation of AR (AR [2]; without R1881, 24 hours): not affected

Compound: NNCc1cccc(O)c1 [NSD-1015, 3-hydroxybenzylhydrazine]
- decrease in cell growth (LNCaP cells [3]; absence of hormone): 1.43 fold
- decline in cell growth (LNCaP cells [3]; [8]): 1.15 fold
- decrease in cell growth (C4-2 cells; absence of hormone): 1.20 fold
- decline in cell growth (C4-2 cells; [8]): 1.24 fold
- secreted DA level (DDC [4]): 220±85 pg/mL CM
- reduction of DA levels (DDC [5]): 2.6 fold
- secreted DA level (DDC [5]): 3561±2032 pg/mL CM

Compound: C[C@]1(O)CC[C@H]2[C@@H]3CCC4=CC(=O)CCC4=C3C=C[C@@]21C [R1881]
- minimum concentration required for activation of AR transcription (AR [2]; PC3 cells transfected with AR, 24 hours): 0.1 nM
- minimum concentration required for activation of AR transcription (AR [6]): 0.1 nM
- available ligand bound to AR-LBD (ligand-binding efficiency) (AR ligand binding domain; 20 nM [3H]-R1881, absence and presence of His-DDC): about 5%
- ligand-binding efficiency (AR ligand binding domain; 100 nM R1881, absence of DDC): 14%
- total available ligand bound to AR-LBD (AR ligand binding domain; 100 nM R1881, with His-DDC): 24.5%
- ligand-binding efficiency (AR ligand binding domain; 1000 nM R1881, absence of DDC): 54%
- total available ligand bound to AR-LBD (AR ligand binding domain; 1000 nM R1881, with His-DDC): 92%
- R1881 concentration required to 50% saturate total AR-LBD protein (AR ligand binding domain; absence of His-DDC): 883 nM
- R1881 concentration required to 50% saturate total AR-LBD protein (AR ligand binding domain; presence of His-DDC (0.5 μg/assay)): 425 nM
- bound R1881 (AR ligand binding domain; tracer 20 nM [3H]-R1881, AR-LBD control): 895±93 pmole bound R1881/mg AR-LBD
- bound R1881 (AR ligand binding domain; tracer 20 nM [3H]-R1881, AR-LBD+His-DDC): 937±111 pmole bound R1881/mg AR-LBD
- amount of R1881 required to reach the control Bmax (AR [7]; presence of DDC (overexpression)): 0.56 nM
- R1881 concentration at which control Bmax occurred (AR [7]; vector control): 1 nM
